The record followed here is EP0688218B1, “INTERLEUKIN-1 INHIBITOR” (OTSUKA PHARMACEUTICAL CO., LTD., priority 1993, dated 1994).

The test system of assay [1] is IL-1α. As to the kind of experiment: Inhibition of LPS-stimulated IL-1α release in heparinized peripheral blood culture (ELISA). Particulars: Dose 3 x 10^-5 g/ml; 10% heparinized peripheral blood from healthy volunteer; LPS 3.3 µg/ml; 18 - 24 hours. In kind it is cell-based, human. The protocol:
(§1) Method: A 10% heparinized prepheral blood from healthy volunteer, a test compound and lipopolysaccharide (LPS, 3.3 µg/ml) were suspended in RPMI-1640 medium supplemented with penicillin 100 units/ml and streptomycin […], and the mixture was incubated in a 5% CO2 atmosphere at 37°C for 18 - 24 hours. The supernatant of the culture was collected by centrifugation.
(§2) The IL-1α and IL-1β isolated from cells by stimulation with LPS were measured by enzyme-linked immunoassay (ELISA). That is, 96-well ELISA plate was coated with a mouse monoclonal antibody against human IL - 1α or human IL-1β, followed by blocking treatment, and thereto was added a test sample and it was subjected to reaction. […] After removing the unbound POD-conjugated antibody by washing, a substrate solution (containing ortho-phenylenediamine and hydrogen peroxide) was added and subjected to reaction, and thereafter, the absorbance at 492 nm was measured, and thereby the amounts of IL-1α and IL-1β were measured based on each standard curve. The ratio (%) of inhibition of IL-1 release was calculated by the following equation: IL-1 release inhibitory ratio (%) = 100 x (1-T/C) [formula] wherein T means the amount of IL-1 in the supernatant of culture incorporated with the test compound, and C means the amount of IL-1 in the supernatant of culture added only with the solvent.
In general terms: In an ELISA, binding on a coated surface is turned into a signal by an enzyme label.

For assay [2], the system named is IL-1β. As to the kind of experiment: Inhibition of LPS-stimulated IL-1β release in heparinized peripheral blood culture (ELISA). It is filed as cell-based, human. Particulars: Dose 3 x 10^-5 g/ml; 10% heparinized peripheral blood from healthy volunteer; LPS 3.3 µg/ml; 18 - 24 hours. The protocol:
as §1, §2

With `CC1CCc2c(N3CCC(O)CC3)c(F)cc3c(=O)c(C(=O)O)cn1c23` (stereo not shown) [Test compound 2, 9-Fluoro-8-(4-hydroxy-1-piperidinyl)-5-methyl-6,7-dihydro-1-oxo-1H,5H-benzo[ji]quinolidine-2-carboxylic acid], the “IL-1α release inhibitory ratio” value in assay [1] is on record as 82%. The “IL-1β release inhibitory ratio” value in assay [2] was found to be 78%.

Regarding `Cc1c(F)c(N2CCNC(C)C2)cc2c1c(=O)c(C(=O)O)cn2C1CC1` (stereo not shown) [Test compound 1, 7-(3-Methyl-1-piperazinyl)-1-cyclopropyl-6-fluoro-5-methyl-1,4-dihydro-4-oxoquinoline-3-carboxylic acid], the “IL-1α release inhibitory ratio” value in assay [1] stood at 93%. Further, in assay [2], the “IL-1β release inhibitory ratio” value is 96%.
